Experimental data taken from patent US8163906B2, “Dihydroquinone and dihydronaphthridine inhibitors of JNK” (Roche Palo Alto, LLC, priority 2007, dated 2012).
Like-named read-outs stand apart in the source and are kept apart here.

Columns and labels:
[1] = system: TNFα-induced IL-6 production; assay: Rat in vivo TNFα-induced IL-6 production assay, oral gavage; parameters: species or system Female Wistar-Han rats; settings: 30 min prior to TNF-α i.p. challenge, plasma 90 min after challenge
Procedure: Female Wistar-Han rats procured from Charles River Laboratories were allowed to acclimate for one week prior to use and achieve an approximate body weight of 101-130 g. Rats were administered test compound (N=8 per compound) via oral gavage 30 min prior to an intraperitoneal challenge of 0.5 μg recombinant rat TNF-α (Biosource). Blood was collected via cardiocentesis 90 min after TNF-α challenge. Plasma was prepared using lithium heparin separation tubes (BD microtainer) and frozen at −80° C. until analyzed. IL-6 levels were determined using a rat specific IL-6 ELISA kit (Biosource). The percent inhibition and ED50 values (calculated as the dose of compound at which […] is 50% of the control value) were determined.

Human JNK2α2 = Human JNK2α2 (Homo sapiens, UniProt P45984); assay: JNK assay in vitro, phosphorylation of GST-ATF2 with [γ-33P] ATP (JNK2); format: biochemical; settings: ATP at Km (8 μM), 1 μM ATF2, 30° C. 30 min
Procedure: (§1) JNK activity was measured by phosphorylation of GST-ATF2 (19-96) with [γ-^33P] ATP. […] Human JNK2α2 assay contains 1 nM enzyme, 1 μM ATF2, 8 μM ATP with 1 uCi [γ-^33P] ATP. Human JNK1α1 assay contains 2 nM enzyme, 1 μM ATF2, 6 μM ATP with 1 μCi [γ-^33P] ATP. […] ATP. The enzyme assay was carried out in the presence or absence of several compound concentrations. JNK and compound were pre-incubated for 10 min., followed by initiation of the enzymatic reaction by adding ATP and the substrate. The reaction mixture was incubated at 30° C. for 30 min. […] The incorporation of ^33P into ATF2 was quantified on a microplate scintillation counter (Packard Topcount). Compound inhibition potency on JNK was measured by IC50 value generated from ten concentration inhibition curves fitted into the 3-parameter model: % inhibition=Maximum/(1+(IC50/[Inhibitor])^slope). Data were analyzed on Microsoft Excel for parameter estimation.

Human JNK1α1 = Human JNK1α1 (Homo sapiens, UniProt P45983); assay: JNK assay in vitro, phosphorylation of GST-ATF2 with [γ-33P] ATP (JNK1); format: biochemical; settings: 1 μM ATF2, 30° C. 30 min
Procedure: as §1

[2] = system: TNFα-induced IL-6 production; assay: Rat in vivo TNFα-induced IL-6 production assay, subcutaneous; parameters: species or system Female Wistar-Han rats; settings: plasma 90 min after TNF-α challenge
Procedure: Female Wistar-Han rats procured from Charles River Laboratories were allowed to acclimate for one week prior to use and achieve an approximate body weight of 114-132 g. Rats were administered compound 18 (N=8 per dose) subcutaneously 30 min prior to an intra-peritoneal challenge of 0.5 μg recombinant rat TNF-α (Biosource). Blood was collected via cardiocentesis 90 min after TNF-α challenge. Plasma was prepared using lithium heparin separation tubes (BD microtainer) and frozen at −80° C. until analyzed. IL-6 levels were determined using a rat specific IL-6 ELISA kit (Biosource). The percent inhibition and ED50 values (calculated as the dose of compound at which […] is 50% of the control value) were determined.

[3] = ATP at Km (6 μM), read-out: IC50 vs. JNK1
[4] = IC50 vs. JNK1, ATP at Km (6 μM)

Chain of Human JNK1α1 (P45983 1-384 isoform P45983-2): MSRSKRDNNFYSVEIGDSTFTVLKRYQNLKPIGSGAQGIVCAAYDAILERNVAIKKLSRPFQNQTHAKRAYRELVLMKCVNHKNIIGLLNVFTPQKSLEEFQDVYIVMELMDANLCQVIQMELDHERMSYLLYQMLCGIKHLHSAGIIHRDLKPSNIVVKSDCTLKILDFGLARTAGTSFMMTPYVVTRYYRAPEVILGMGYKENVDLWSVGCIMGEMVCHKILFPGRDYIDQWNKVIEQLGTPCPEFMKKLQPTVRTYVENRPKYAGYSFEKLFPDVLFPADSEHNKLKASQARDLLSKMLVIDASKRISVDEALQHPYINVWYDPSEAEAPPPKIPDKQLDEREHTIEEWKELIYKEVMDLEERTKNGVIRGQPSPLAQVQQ
Chain of Human JNK2α2 (P45984 whole entry): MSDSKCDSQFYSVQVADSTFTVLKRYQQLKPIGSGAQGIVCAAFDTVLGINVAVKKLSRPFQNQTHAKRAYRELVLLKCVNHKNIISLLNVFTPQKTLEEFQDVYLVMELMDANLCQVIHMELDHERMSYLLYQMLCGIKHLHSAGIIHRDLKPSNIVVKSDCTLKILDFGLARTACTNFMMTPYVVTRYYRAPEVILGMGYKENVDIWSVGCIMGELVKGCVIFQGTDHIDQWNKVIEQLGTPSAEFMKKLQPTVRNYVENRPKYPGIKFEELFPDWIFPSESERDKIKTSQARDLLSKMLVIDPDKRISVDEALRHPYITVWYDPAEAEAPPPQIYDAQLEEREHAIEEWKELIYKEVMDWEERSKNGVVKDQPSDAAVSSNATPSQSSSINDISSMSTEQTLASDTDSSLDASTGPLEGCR

Row | melting point | IC50 (Human JNK2α2) | IC50 (Human JNK1α1; [3]) | SMILES | other results
1 | 223.3 to 226.6 °C | 86.3 nM | 35.5 nM | COC(=O)c1c(Cc2ccc(S(=O)(=O)N3CCN(C)CC3)cc2)c(=O)c2ccc(Cl)cc2n1-c1ccccc1 [Compound 30, 7-chloro-3-[4-(4-methyl-piperazine-1-sulfonyl)-benzyl]-4-oxo-1-phenyl-1,4-dihydroquinoline-2-carboxylic acid methyl ester] | IL-6 Inhibition (%) ([1]; 30 mg/Kg): 46%
2 | 240 to 242.6 °C | 118 nM | 48.1 nM | COC(=O)c1c(Cc2ccc(S(=O)(=O)NCC(C)(C)O)cc2)c(=O)c2ccc(Cl)cc2n1-c1ccccc1 [Compound 85, 3-[4-(2-Hydroxy-2-methylpropylsulfonamoyl)benzyl]-4-oxo-7-chloro-1-phenyl-1,4-dihydroquinoline-2-carboxylic acid methyl ester] | –
3 | 191.5 to 193.1 °C | 95.7 nM | 32.8 nM | COC(=O)c1c(Cc2ccc(S(=O)(=O)NCCO)cc2)c(=O)c2ccc(Cl)cc2n1-c1ccccc1 [Compound 65, 7-chloro-3-[4-(2-hydroxy-ethylsulfamoyl)-benzyl]-4-oxo-1-phenyl-1,4-dihydro-quinoline-2-carboxylic acid methyl ester] | –
4 | 161 to 163 °C | 2100 nM | 250 nM | COC(=O)c1c(CN2CCC(N3CCOCC3)CC2)c(=O)c2ccc(F)cc2n1-c1ccccc1 [Compound 135] | –
5 | 135 to 136 °C | 83.2 nM | 33.4 nM | COC(=O)c1c(Cc2ccc(S(=O)(=O)N3CC[C@H](O)C3)cc2)c(=O)c2ccc(Cl)cc2n1-c1ccccc1 [Compound 87, 7-Chloro-3-[4-(3-hydroxypyrrolidine-1-sulfonyl)-benzyl]-4-oxo-1-phenyl-1,4-dihydroquinoline-2-carboxylic acid methyl ester] | –
6 | 206.3 to 208 °C | 336 nM | 154 nM | CC(=O)c1c(Cc2ccc(S(=O)(=O)N3CCN(C)CC3)cc2)c(=O)c2ccc(Cl)cc2n1-c1ccccc1 [Compound 72, 2-acetyl-7-chloro-3-[4-(4-methylpiperazine-1-sulfonyl)-benzyl]-1-phenyl-1H-quinolin-4-one] | –
7 | 218.1 to 219.5 °C | 129 nM | 44.5 nM | COC(=O)c1c(Cc2ccc(S(=O)(=O)N(C)C)cc2)c(=O)c2ccc(Cl)cc2n1-c1ccccc1 [Compound 32, 7-Chloro-3-(4-dimethylsulfamoyl-benzyl)-4-oxo-1-phenyl-1,4-dihydroquinoline-2-carboxylic acid methyl ester] | –
8 | – | – | – | COC(=O)c1c(Cc2ccc(C(=O)NCCO)cc2)c(=O)c2ccc(Cl)cc2n1-c1ccccc1 [Compound 18, 7-chloro-3-[4-(2-hydroxyethylcarbamoyl)-benzyl]-4-oxo-1-phenyl-1,4-dihydroquinoline-2-carboxylic acid methyl ester] | IL-6 Inhibition (%) ([1]; 3 mg/Kg): 53%; IL-6 Inhibition (%) ([2]; 0.3 mg/Kg): 30.01%; IL-6 Inhibition (%) ([2]; 1.0 mg/Kg): 47.83%; IL-6 Inhibition (%) ([2]; 3.0 mg/Kg): 54.85%; IL-6 Inhibition (%) ([2]; 10 mg/Kg): 71.15%
9 | 279.3 to 282.8 °C | 2090 nM | 612 nM | Nc1cccc(-n2c(-c3ncco3)c(Cc3ccccc3)c(=O)c3ccc(Cl)cc32)n1 [Compound 141, 1-(6-amino-pyridin-2-yl)-3-benzyl-7-chloro-2-oxazol-2-yl-1H-quinolin-4-one] | –
10 | 145.5 to 147.2 °C | 399 nM | 134 nM | CC(=O)c1c(Cc2ccc(S(=O)(=O)N3CCC(O)CC3)cc2)c(=O)c2ccc(Cl)cc2n1-c1ccccc1 [Compound 70, 2-Acetyl-7-chloro-3-[4-(4-hydroxypiperidine-1-sulfonyl)-benzyl]-1-phenyl-1H-quinolin-4-one] | –
11 | > 300 °C | 477 nM | 193 nM | CCC(=O)c1c(Cc2ccc(S(=O)(=O)N3CCN(C)CC3)cc2)c(=O)c2ccc(Cl)cc2n1-c1ccccc1 [Compound 80, 7-chloro-3-[4-(4-methylpiperazin-1-sulfonyl)benzyl]-1-phenyl-2-propionyl-1H-quinlin-4-one] | –
12 | 170 to 171 °C | 47 nM | 18.4 nM | COC(=O)c1c(Cc2ccc(S(=O)(=O)N3CCC(O)CC3)cc2)c(=O)c2ccc(Cl)cc2n1-c1ccccc1 [Compound 69, 7-Chloro-3-[4-(4-hydroxypiperidine-1-sulfonyl)-benzyl]-4-oxo-1-phenyl-1,4-dihydroquinoline-2-carboxylic acid methyl ester] | –
13 | 175.3 to 180.3 °C | 86.7 nM | 32 nM | COC(=O)c1c(Cc2ccc(S(=O)(=O)C(C)CO)cc2)c(=O)c2ccc(Cl)cc2n1-c1ccccc1 (centres unmarked) [Compound 117] | –
14 | – | 562 nM | 252 nM | COC(=O)c1c(Cc2cnn(C)c2)c(=O)c2ccc(C(F)(F)F)nc2n1-c1ccccc1 [Compound 129, 3-(1-methyl-1H-pyrazol-4-ylmethyl)-1-4-oxo-phenyl-7-trifluoromethyl-1H-[1,8]naphthyridine-2-carboxylic acid methyl ester] | –

Row | SMILES | melting point | IC50 (Human JNK2α2) | IC50 (Human JNK1α1; [3]) | other results
15 | COC(=O)c1c(Cc2ccc(S(=O)(=O)N3CCNCC3)cc2)c(=O)c2ccc(Cl)cc2n1-c1ccccc1.O=C(O)C(F)(F)F [Compound 66, 7-chloro-4-oxo-1-phenyl-3-[4-(piperazine-1-sulfonyl)-benzyl]-1,4-dihydro-quinoline-2-carboxylic acid methyl ester trifluoroacetate] | 203 to 205 °C | 44.5 nM | – | IC50 (Human JNK1α1; [4]): 18.1 nM
16 | COC(=O)c1c(Cc2ccc(S(=O)(=O)N3CCC(O)CC3)cc2)c(=O)c2ccc(F)cc2n1-c1ccccc1 [Compound 110] | 232 to 233 °C | 201 nM | 50.2 nM | –
17 | COC(=O)c1c(Cc2ccc(S(=O)(=O)N3CCNCC3)cc2)c(=O)c2ccc(Cl)cc2n1-c1ccccc1.Cl [Compound 67, 7-Chloro-4-oxo-1-phenyl-3-[4-(piperazine-1-sulfonyl)-benzyl]-1,4-dihydroquinoline-2-carboxylic acid methyl ester bishydrochloride] | 214 to 215.5 °C | 48.5 nM | – | IC50 (Human JNK1α1; [4]): 30.4 nM
